Test results reported in PubChem BioAssay AID1963446 (Molecular Pharmacology Branch, DTP, NCI, 2024).

Test system: 993429-296-R-J1-PDC complex spheroid growth, percent test/control
Experiment: Anticancer human tumor 993429-296-R-J1-PDC patient-derived uterine sarcoma cell line growth inhibition [Asc]
Details: for IC50: curve of first compound; for viability, T/C: stronger effect = lower value
How it was run: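 Spheroid model: tumor line + HUVEC + hMSC. Single agents and combinations; top conc. at/near clinical Cmax (10 microM if undetermined), half-log dilutions. DMSO stocks at 800-fold test concentration.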

[1] = second compound 0.01 µM, first compound 0.00316 µM
[2] = second compound 0.01 µM, first compound 0.01 µM
[3] = second compound 0.01 µM, first compound 0.0316 µM
[4] = second compound 0.01 µM, first compound 0.1 µM
[5] = second compound 0.01 µM, first compound 0.316 µM
[6] = second compound 0.01 µM, first compound 1 µM
[7] = second compound 0.0316 µM, first compound 0.00316 µM
[8] = second compound 0.0316 µM, first compound 0.01 µM
[9] = second compound 0.0316 µM, first compound 0.0316 µM
[10] = second compound 0.0316 µM, first compound 0.1 µM
[11] = second compound 0.0316 µM, first compound 0.316 µM
[12] = second compound 0.0316 µM, first compound 1 µM
[13] = second compound 0.1 µM, first compound 0.00316 µM
[14] = second compound 0.1 µM, first compound 0.01 µM
[15] = second compound 0.1 µM, first compound 0.0316 µM
[16] = second compound 0.1 µM, first compound 0.1 µM
[17] = second compound 0.1 µM, first compound 0.316 µM
[18] = second compound 0.1 µM, first compound 1 µM
[19] = second compound 0.316 µM, first compound 0.00316 µM
[20] = second compound 0.316 µM, first compound 0.01 µM
[21] = second compound 0.316 µM, first compound 0.0316 µM
[22] = second compound 0.316 µM, first compound 0.1 µM
[23] = second compound 0.316 µM, first compound 0.316 µM
[24] = second compound 0.316 µM, first compound 1 µM
[25] = second compound 1 µM, first compound 0.00316 µM
[26] = second compound 1 µM, first compound 0.01 µM
[27] = second compound 1 µM, first compound 0.0316 µM
[28] = second compound 1 µM, first compound 0.1 µM
[29] = second compound 1 µM, first compound 0.316 µM
[30] = second compound 1 µM, first compound 1 µM
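Also: spheroids exposed to compounds for seven days.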

CCN1CCN(Cc2ccc(Nc3ncc(F)c(-c4cc(F)c5nc(C)n(C(C)C)c5c4)n3)nc2)CC1 + CNC(C)C(=O)NC1CN(S(=O)(=O)c2cccc(S(=O)(=O)N3CCC4CCC(C(=O)NC(c5ccccc5)c5ccccc5)N4C(=O)C(NC(=O)C(C)NC)C3)c2)CCC2CCC(C(=O)NC(c3ccccc3)c3ccccc3)N2C1=O gave an IC50 (second compound 0.01 µM) greater than 1000 nM, an IC50 (second compound 0.0316 µM) greater than 1000 nM and an IC50 (second compound 0.1 µM) greater than 1000 nM. For the same molecule, the IC50 (second compound 0.316 µM) was less than 3.16 nM, the IC50 (second compound 1 µM) was greater than 1000 nM and the viability, T/C [1] was 58.4%. For the same molecule, the viability, T/C [2] was 66.1%, the viability, T/C [3] was 64% and the viability, T/C [4] was 68.4%. The viability, T/C [5] was 67.7%, the viability, T/C [6] was 76% and the viability, T/C [7] was 54.1%. For the same molecule, the viability, T/C [8] was 63.4%, the viability, T/C [9] was 59.5% and the viability, T/C [10] was 53.6%. It also gave a viability, T/C [11] of 71.4%, a viability, T/C [12] of 77.4% and a viability, T/C [13] of 52%. The viability, T/C [14] was 54%, the viability, T/C [15] was 56.2% and the viability, T/C [16] was 54%. The viability, T/C [17] was 59.8%, the viability, T/C [18] was 62.4% and the viability, T/C [19] was 45.3%. For the same molecule, the viability, T/C [20] was 46.2%, the viability, T/C [21] was 41% and the viability, T/C [22] was 53.2%. For the same molecule, the viability, T/C [23] was 69%, the viability, T/C [24] was 70% and the viability, T/C [25] was 53.5%. For the same molecule, the viability, T/C [26] was 58.7%, the viability, T/C [27] was 38.9% and the viability, T/C [28] was 51.4%. It also gave a viability, T/C [29] of 49.6% and a viability, T/C [30] of 60.3%.

For NC(=O)C(=Cn1cnc(-c2cc(C(F)(F)F)cc(C(F)(F)F)c2)n1)c1cncnc1 + CNC(C)C(=O)NC1CN(S(=O)(=O)c2cccc(S(=O)(=O)N3CCC4CCC(C(=O)NC(c5ccccc5)c5ccccc5)N4C(=O)C(NC(=O)C(C)NC)C3)c2)CCC2CCC(C(=O)NC(c3ccccc3)c3ccccc3)N2C1=O, the IC50 (second compound 0.01 µM) was 12.8 nM, the IC50 (second compound 0.0316 µM) was 11.1 nM and the IC50 (second compound 0.1 µM) was 8.96 nM. The IC50 (second compound 0.316 µM) was 5.99 nM, the IC50 (second compound 1 µM) was 8.1 nM and the viability, T/C (second compound 0.01 µM, first compound 0.000949 µM) was 62.7%. It also gave a viability, T/C (second compound 0.01 µM, first compound 0.003 µM) of 65.6%, a viability, T/C (second compound 0.01 µM, first compound 0.00949 µM) of 55.4% and a viability, T/C (second compound 0.01 µM, first compound 0.03 µM) of 33.1%. The viability, T/C (second compound 0.01 µM, first compound 0.0949 µM) was 14.9%, the viability, T/C (second compound 0.01 µM, first compound 0.3 µM) was 8.47% and the viability, T/C (second compound 0.0316 µM, first compound 0.000949 µM) was 63.6%. For the same molecule, the viability, T/C (second compound 0.0316 µM, first compound 0.003 µM) was 63.1%, the viability, T/C (second compound 0.0316 µM, first compound 0.00949 µM) was 52.1% and the viability, T/C (second compound 0.0316 µM, first compound 0.03 µM) was 33%. The viability, T/C (second compound 0.0316 µM, first compound 0.0949 µM) was 14.9%, the viability, T/C (second compound 0.0316 µM, first compound 0.3 µM) was 8% and the viability, T/C (second compound 0.1 µM, first compound 0.000949 µM) was 58.3%. For the same molecule, the viability, T/C (second compound 0.1 µM, first compound 0.003 µM) was 61.1%, the viability, T/C (second compound 0.1 µM, first compound 0.00949 µM) was 48.1% and the viability, T/C (second compound 0.1 µM, first compound 0.03 µM) was 33.3%. It also gave a viability, T/C (second compound 0.1 µM, first compound 0.0949 µM) of 16%, a viability, T/C (second compound 0.1 µM, first compound 0.3 µM) of 4.45% and a viability, T/C (second compound 0.316 µM, first compound 0.000949 µM) of 57.6%. For the same molecule, the viability, T/C (second compound 0.316 µM, first compound 0.003 µM) was 60%, the viability, T/C (second compound 0.316 µM, first compound 0.00949 µM) was 43.7% and the viability, T/C (second compound 0.316 µM, first compound 0.03 µM) was 29%. It also gave a viability, T/C (second compound 0.316 µM, first compound 0.0949 µM) of 15.8%, a viability, T/C (second compound 0.316 µM, first compound 0.3 µM) of 8.88% and a viability, T/C (second compound 1 µM, first compound 0.000949 µM) of 52%. For the same molecule, the viability, T/C (second compound 1 µM, first compound 0.003 µM) was 62.6%, the viability, T/C (second compound 1 µM, first compound 0.00949 µM) was 47.8% and the viability, T/C (second compound 1 µM, first compound 0.03 µM) was 28.5%. For the same molecule, the viability, T/C (second compound 1 µM, first compound 0.0949 µM) was 14.1% and the viability, T/C (second compound 1 µM, first compound 0.3 µM) was 5.77%.

O=C(c1ccc(F)c(F)c1Nc1ccc(I)cc1F)N1CC(O)([C@@H]2CCCCN2)C1 + CNC(C)C(=O)NC1CN(S(=O)(=O)c2cccc(S(=O)(=O)N3CCC4CCC(C(=O)NC(c5ccccc5)c5ccccc5)N4C(=O)C(NC(=O)C(C)NC)C3)c2)CCC2CCC(C(=O)NC(c3ccccc3)c3ccccc3)N2C1=O gave an IC50 (second compound 0.01 µM) of 56.5 nM, an IC50 (second compound 0.0316 µM) of 30.9 nM and an IC50 (second compound 0.1 µM) of 27.2 nM. For the same molecule, the IC50 (second compound 0.316 µM) was less than 3.16 nM, the IC50 (second compound 1 µM) was 11.4 nM and the viability, T/C [1] was 65.5%. The viability, T/C [2] was 64.5%, the viability, T/C [3] was 50.4% and the viability, T/C [4] was 48.9%. It also gave a viability, T/C [5] of 25.3%, a viability, T/C [6] of 1.67% and a viability, T/C [7] of 61.7%. The viability, T/C [8] was 51.2%, the viability, T/C [9] was 55.2% and the viability, T/C [10] was 33.4%. It also gave a viability, T/C [11] of 19.1%, a viability, T/C [12] of 1.07% and a viability, T/C [13] of 56.4%. For the same molecule, the viability, T/C [14] was 57.5%, the viability, T/C [15] was 50.7% and the viability, T/C [16] was 29.6%. It also gave a viability, T/C [17] of 14.9%, a viability, T/C [18] of 1.5% and a viability, T/C [19] of 48.3%. It also gave a viability, T/C [20] of 45.4%, a viability, T/C [21] of 50.7% and a viability, T/C [22] of 34.1%. It also gave a viability, T/C [23] of 11%, a viability, T/C [24] of 0.99% and a viability, T/C [25] of 54.8%. The viability, T/C [26] was 48.4%, the viability, T/C [27] was 43.6% and the viability, T/C [28] was 38.5%. It also gave a viability, T/C [29] of 12.7% and a viability, T/C [30] of 0.99%.
